Values joined by “and” are separate entries in the source; they are usually repeats but may differ in a detail not shown here. Identical values can stand only once. Like-named read-outs stand apart in the source and are kept apart here.
What was measured:
[1] = test system: Escherichia coli (ATCC 25922); conditions: peptide alone; peptide concentration required to inhibit growth by 20% (so in the source)
Method: (§1) The N-terminus of the peptides were acetylated and the C-terminus was amidated. The kinked structure can rapidly reduce the alpha-helical content, thereby greatly reducing the toxicity of the peptide against host cells. In addition, because of the potential to show specificity for the Gram-negative bacterial membrane, Pro-mutants were prepared by site-directed mutagenesis. Using the prepared peptides, their MIC for the Gram-negative bacterium E. coli and the Gram-positive bacterium S. aureus and their hemolytic activity for host cells were examined (Table 1).
(§2) To measure the synergy between the membrane-activating peptides and the repositioning drug, a 10× compound was prepared, and then serially diluted ⅔-fold with distilled water. An MH broth (900 μl) was added to and mixed with the 10× compound (100 μl), and then 200 μL of the mixture was taken and added to a 96-well plate. E. coli cultured for one day was adjusted to 0.5 MCF using MCFarland, and diluted 10-fold, and then 10 μl of the dilution was added to each well of the plate (5×10^5 CFU/mL). After addition of the bacterial cells, plate was incubated at 37° C. for 18 hours, and then the OD value at UV-Vis (600 nm) was measured. Cell viability (%)=(OD600 of sample−OD600 of negative control)/(OD600 of positive control−OD600 of negative control)×100.

[2] = test system: Staphylococcus aureus (ATCC 29213); assay: MIC of peptide against S. aureus; type: cell-based; conditions: peptide alone
Method: as §1

[3] = test system: E. coli ATCC 25922; assay: Antibiotic interaction assay (Wimley), 2/3 broth microdilution: MIC alone, MIC of combination, FICI; type: cell-based; conditions: for MIC when the three compounds were used alone: Example 7; for MIC (μM) against E. coli ATCC, combination of two compounds / MIC (μM) against E. coli ATCC, combination of 3 compounds / concentration killing E. coli in combination KL-L9P/colistin/linezolid: concentration of labelled component
Method: Synergy was evaluated by an antibiotic interaction assay (Wimley, 2015) Using the method of Wimley (BBA, 2015, v. 1848(1), pp. 8-15), synergy between the membrane-activating peptide and an antibiotic was measured by an FICI value (FIG. 17). […] Thus, to accurately examine synergy, a ⅔ dilution method which observes MIC at denser concentration intervals is advantageous over a ½ dilution method in statistical terms. […] In the same manner, the MIC of an antibiotic or repositioning drug (second line) is measured. In the third line, the two compounds are mixed after putting half amount each, and the MIC thereof is measured.
A broth microdilution technique (⅔ dilution) was used together with an MH broth. E. coli treated with an antibiotic and the peptide was incubated in a 37° C. incubator for 18 hours.
as §2

[4] = test system: E. coli; assay: NPN fluorescence, penetration into outer membrane; type: cell-based; conditions: FIG. 5
Method: Penetration into the microbial outer membrane was measured by the fluorescence intensity of NPN-treated E. coli (λex=355 nm, λem=405 nm). An E. coli suspension (8×10^7 cells/mL) was centrifuged at 13000 rpm at 25° C. for 10 minutes, and suspended in 5 mM HEPES buffer (pH 7.2). NPN was added to the E. coli suspension to a final NPN concentration of 5 μM. The fluorescence intensity of the E. coli suspension was measured using the FL-55 fluorometer. The peptide together with 5 μM NPN was added to the E. coli suspension.

[5] = test system: E. coli; assay: SYTOX Green membrane penetrability by FACS; type: cell-based; conditions: FIG. 6
Method: In the second experiment, whether the peptides would have the ability to disrupt both the outer wall and inner wall of bacteria was examined. To this end, the fluorescent dye Sytox Green capable of specifically staining DNA was used, and penetrability into the microbial membrane was evaluated from the average fluorescence intensity of E. coli treated with SYTOX Green. An E. coli suspension (2×10^8 cells/mL) was incubated with the three peptides in the presence of SYTOX Green (2.5 μM) for 10 minutes, respectively. Penetrability was quantified by a (fluorescence activated cell sorter (FACS). The average fluorescence intensity of 1×10^4 gate cells was measured. Melittin (control) is a pore-forming peptide that disrupts the microbial cell membrane.

[6] = test system: E. coli NDm-1; assay: Confocal microscopy of TAMRA-conjugated peptide; type: cell-based; conditions: 2.5 μM peptide, 30 minutes, FIG. 8
Method: E. coli NDm-1 was diluted when it reached OD600=0.5. The microorganism was treated with 2.5 μM of the peptide in a 37° C. incubator for 30 minutes. LK-L12P was used as a positive control.

[7] = test system: E. coli ATCC 25922
[8] = KL-L9P + colistin + (S)-ibuprofen
[9] = KL-L9P + colistin + cloxacillin
[10] = KL-L9P + colistin + simvastatin
[11] = Tables 19-23, read-out: MIC (μM) against E. coli ATCC, 1 compound alone
[12] = labelled peptide + colistin + linezolid
[13] = three compounds: labelled peptide + colistin + linezolid

KLLKLLKKPLKLLK [KL-L9P]
MIC [μM] Against E. coli [1]: 20 µM and 12 µM
MIC [μM] Against S. aureus [2]: >40 µM
lowering of MIC in combination KL-L9P/colistin/linezolid versus alone [3]: 12 fold
MIC when the three compounds were used alone [3]: 13 µM
FICI of peptide with resveratrol ([3]; FIG. 10): 0.2
MIC (μM) against E. coli ATCC, combination of two compounds ([3]; KL-L9P + (S)-ibuprofen): 2.0 µM
MIC (μM) against E. coli ATCC, combination of two compounds ([3]; KL-L9P + cloxacillin): 3.0 µM
MIC (μM) against E. coli ATCC, combination of 3 compounds [3, 8]: 1.1 µM
MIC (μM) against E. coli ATCC, combination of 3 compounds [3, 9]: 1.6 µM
MIC (μM) against E. coli ATCC, combination of 3 compounds ([3]; KL-L9P + colistin + curcumin): 1.1 µM
MIC (μM) against E. coli ATCC, combination of 3 compounds ([3]; KL-L9P + colistin + linezolid): 1.1 µM
MIC (μM) against E. coli ATCC, combination of 3 compounds [3, 10]: 0.79 µM
MIC (μM) against E. coli ATCC, combination of two compounds ([3]; KL-L9P + colistin): 2.4 µM
MIC (μM) against E. coli ATCC, combination of two compounds ([3]; KL-L9P + curcumin): 1.9 µM
MIC (μM) against E. coli ATCC, combination of two compounds ([3]; KL-L9P + linezolid): 2.6 µM
MIC (μM) against E. coli ATCC, combination of two compounds ([3]; KL-L9P + simvastatin): 1.3 µM
MIC [3, 11]: 15 µM
concentration killing E. coli in combination KL-L9P/colistin/linezolid [3]: 1 µM
FICI of peptide with colistin ([3]; labelled peptide + colistin): 0.26
FICI of peptide with colistin and linezolid [3, 12]: 0.28
FICI of peptide with linezolid ([3]; labelled peptide + linezolid): 0.40
FICI of peptide with simvastatin ([3]; labelled peptide + simvastatin): 0.18
MIC of combination (μM): peptide ([3]; peptide concentration in combination with colistin): 2.6 µM
NPN fluorescence: touching/loosening the outer membrane [4]: better effect of loosening the outer membrane than colistin
SYTOX Green DNA staining: ability to degrade or penetrate the inner wall [5]: did not stain DNA
confocal image: membrane leakage / distribution of TAMRA-labeled peptide [6]: distributed around the thin peri-cytoplasmic membrane
MIC (μM) against E. coli ATCC 25922, Peptide alone ([7]; Table 4, bacterial growth <10% of control): 15 µM
FICI Against E. coli, Colistin & 1/2 MIC peptide ([7]; Table 13, Lys-Ala scanning library): 0.58
FICI Against E. coli, Colistin & 1/2 MIC peptide ([7]; Table 15, Leu-Ala scanning): 0.74
FICI Against E. coli, Colistin & 1/4 MIC peptide ([7]; Table 15, Leu-Ala scanning): 0.55

colistin
lowering of MIC in combination KL-L9P/colistin/linezolid versus alone [3]: 16 fold
MIC when the three compounds were used alone [3]: 0.8 µM
MIC (μM) against E. coli ATCC, combination of 3 compounds [3, 8]: 0.08 µM
MIC (μM) against E. coli ATCC, combination of 3 compounds [3, 9]: 0.08 µM
MIC (μM) against E. coli ATCC, combination of 3 compounds ([3]; KL-L9P + colistin + curcumin): 0.08 µM
MIC (μM) against E. coli ATCC, combination of 3 compounds ([3]; KL-L9P + colistin + linezolid): 0.06 µM
MIC (μM) against E. coli ATCC, combination of 3 compounds [3, 10]: 0.06 µM
MIC (μM) against E. coli ATCC, combination of two compounds ([3]; KL-L9P + colistin): 0.17 µM
MIC [3, 11]: 1 µM
MIC (μM) against E. coli ATCC, combination of two compounds ([3]; colistin + (S)-ibuprofen): 0.55 µM
MIC (μM) against E. coli ATCC, combination of two compounds ([3]; colistin + cloxacillin): 0.63 µM
MIC (μM) against E. coli ATCC, combination of two compounds ([3]; colistin + curcumin): 0.30 µM
MIC (μM) against E. coli ATCC, combination of two compounds ([3]; colistin + linezolid): 0.60 µM
MIC (μM) against E. coli ATCC, combination of two compounds ([3]; colistin + simvastatin): 0.25 µM
MIC of combination (μM): KL-L9P ([3]; concentration of KL-L9P in combination with labelled drug): 2.40 µM
concentration killing E. coli in combination KL-L9P/colistin/linezolid [3]: 0.05 µM
MIC of combination (μM): antibiotic ([3]; concentration of labelled drug in combination with KL-L9P): 0.17 µM
MIC ([3]; drug alone, <20% growth of positive control, read-out: MIC of antibiotic): 1.63 µM
FICI of drug with KL-L9P ([3]; labelled drug + KL-L9P): 0.26
FICIKL-L9P ([3]; labelled drug + KL-L9P): 0.16
FICIantibiotic ([3]; labelled drug + KL-L9P): 0.10
NPN fluorescence: touching/loosening the outer membrane [4]: had the property of touching the outer membrane and entering the outer membrane
SYTOX Green DNA staining: ability to degrade or penetrate the inner wall [5]: easily stained DNA
MIC (μM) against E. coli ATCC 25922, Colistin alone ([7]; Table 4): 1.25 µM

LKKLLKPPKKLLKL [LK-L7PL8P]
MIC [μM] Against E. coli [1]: 40 µM
MIC [μM] Against S. aureus [2]: >40 µM
MIC of combination (μM): antibiotic (colistin) ([3]; colistin concentration in combination with labelled peptide): 0.09 µM
FICI of peptide with colistin ([3]; labelled peptide + colistin): 0.3 and 0.34
FICIPeptide ([3]; labelled peptide + colistin): 0.16
FICIcolistin / FICIantibiotic ([3]; labelled peptide + colistin): 0.18
FICI of peptide with colistin and linezolid [3, 12]: 0.27
FICIPeptide [3, 12]: 0.07
FICIcolistin [3, 12]: 0.09
FICIlinezolid [3, 12]: 0.11
FICI of peptide with linezolid ([3]; labelled peptide + linezolid): 0.53
FICIPeptide ([3]; labelled peptide + linezolid): 0.26
FICIlinezolid ([3]; labelled peptide + linezolid): 0.27
FICI of peptide with linezolid ([3]; labelled peptide + linezolid, listed as LK-L7P/L8P): about 0.53
MIC of combination (μM): linezolid ([3]; linezolid concentration in combination with labelled peptide): 22 µM
MIC of peptide ([3]; peptide alone): 53 µM
MIC of combination (μM): peptide ([3]; peptide concentration in combination with linezolid): 14 µM
MIC of combination (μM): colistin [3, 13]: 0.040 µM
MIC of combination (μM): linezolid [3, 13]: 5.9 µM
MIC of combination (μM): peptide [3, 13]: 4.7 µM

CC[C@H](C)[C@H](NC(=O)CN)C(=O)NCC(=O)N[C@@H](C)C(=O)N[C@H](C(=O)N[C@@H](CC(C)C)C(=O)N[C@@H](CCCCN)C(=O)N[C@H](C(=O)N[C@@H](CC(C)C)C(=O)N[C@H](C(=O)N[C@H](C(=O)NCC(=O)N[C@@H](CC(C)C)C(=O)N1CCC[C@H]1C(=O)N[C@@H](C)C(=O)N[C@@H](CC(C)C)C(=O)N[C@H](C(=O)N[C@@H](CO)C(=O)N[C@@H](Cc1c[nH]c2ccccc12)C(=O)N[C@H](C(=O)N[C@@H](CCCCN)C(=O)N[C@@H](CCCNC(=N)N)C(=O)N[C@@H](CCCCN)C(=O)N[C@@H](CCCNC(=N)N)C(=O)N[C@@H](CCC(N)=O)C(=O)N[C@@H](CCC(N)=O)C(N)=O)[C@@H](C)CC)[C@@H](C)CC)[C@@H](C)O)[C@@H](C)O)C(C)C)C(C)C [Melittin]
NPN fluorescence: touching/loosening the outer membrane [4]: high ability to increase NPN fluorescence
SYTOX Green DNA staining: ability to degrade or penetrate the inner wall [5]: have this ability

— patent US20180339016A1 (priority 2015, published 2018)
